In brackets after ≈: the same amount, converted by molar mass. Several values for one entry are separate records, joined by “and”; a condition that tells them apart may be missing. Identical values can stand only once. Like-named read-outs stand apart in the source and are kept apart here.
Tests used:
[1] = system: Mycobacterium tuberculosis H37Rv; assay: Microplate alamar blue assay; assay type: cell-based
[2] = system: HepG2 cells; assay: cells; assay type: cell-based, human
[3] = system: Mycobacterium avium; assay: MIC against non-tuberculous mycobacteria; assay type: cell-based; conditions: read-out: MIC M. avium
[4] = system: Mtb H37Rv in infected THP-1 cells; assay: Intracellular activity in infected THP-1 cells; assay type: cell-based; conditions: Mycobacterium tuberculosis, read-out: MIC against intracellular Mtb
[5] = system: THP-1 human monocytic cell line; assay: THP-1 cytotoxicity; conditions: macrophage cytotoxicity relative to intracellular MIC
[6] = target: CYP3A4 (Homo sapiens, UniProt P08684); assay: biochemical; conditions: Cytochrome P450 Inhibition IC50 CYP3A4
[7] = target: CYP2C9 (Homo sapiens, UniProt P11712); assay: biochemical
[8] = target: CYP2C8 (Homo sapiens, UniProt P10632); assay: biochemical
[9] = target: CYP2C19 (Homo sapiens, UniProt P33261); assay: biochemical
[10] = in vitro; conditions: human; for microsomal CLint: s9; for half-life: s9, Human liver S9 Microsomes T ½
[11] = target: CYP2D6 (Homo sapiens, UniProt P10635); assay: biochemical
[12] = system: Caco-2 cell monolayer; conditions: human
[13] = target: CYP2B6 (Homo sapiens, UniProt P20813); assay: biochemical
[14] = in vitro; conditions: human; for Papp A→B at 1 h / Papp A→B at 2 h / Papp B→A at 1 h / Papp B→A at 2 h: Caco-2; for efflux ratio: Caco-2, Caco-2 Efflux Ratio (average)
[15] = in vitro; conditions: plasma
[16] = Relative aqueous solubility by turbidity in 7H9/ADC/Tween medium; conditions: 200 μM highest concentration tested
[17] = Homo sapiens, HepG2, read-out: IC50 HepG2 Gal, galactose medium
[18] = Homo sapiens, HepG2, read-out: IC50 HepG2 Glu, glucose medium

Sequence of CYP3A4 (P08684 whole entry): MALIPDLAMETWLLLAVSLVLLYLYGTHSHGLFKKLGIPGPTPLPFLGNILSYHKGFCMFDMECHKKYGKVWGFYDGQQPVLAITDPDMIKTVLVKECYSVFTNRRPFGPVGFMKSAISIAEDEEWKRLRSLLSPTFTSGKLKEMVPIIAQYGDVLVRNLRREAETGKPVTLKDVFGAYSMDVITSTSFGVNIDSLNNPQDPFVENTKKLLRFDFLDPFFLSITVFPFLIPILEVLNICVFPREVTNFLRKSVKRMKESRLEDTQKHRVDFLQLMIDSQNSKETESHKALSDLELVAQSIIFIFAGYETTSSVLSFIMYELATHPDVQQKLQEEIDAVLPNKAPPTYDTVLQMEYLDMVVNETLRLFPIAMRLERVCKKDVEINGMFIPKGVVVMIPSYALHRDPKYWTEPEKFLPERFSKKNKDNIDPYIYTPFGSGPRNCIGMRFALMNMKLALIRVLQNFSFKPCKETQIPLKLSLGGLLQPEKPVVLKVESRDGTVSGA
Sequence of CYP2C8 (P10632 whole entry): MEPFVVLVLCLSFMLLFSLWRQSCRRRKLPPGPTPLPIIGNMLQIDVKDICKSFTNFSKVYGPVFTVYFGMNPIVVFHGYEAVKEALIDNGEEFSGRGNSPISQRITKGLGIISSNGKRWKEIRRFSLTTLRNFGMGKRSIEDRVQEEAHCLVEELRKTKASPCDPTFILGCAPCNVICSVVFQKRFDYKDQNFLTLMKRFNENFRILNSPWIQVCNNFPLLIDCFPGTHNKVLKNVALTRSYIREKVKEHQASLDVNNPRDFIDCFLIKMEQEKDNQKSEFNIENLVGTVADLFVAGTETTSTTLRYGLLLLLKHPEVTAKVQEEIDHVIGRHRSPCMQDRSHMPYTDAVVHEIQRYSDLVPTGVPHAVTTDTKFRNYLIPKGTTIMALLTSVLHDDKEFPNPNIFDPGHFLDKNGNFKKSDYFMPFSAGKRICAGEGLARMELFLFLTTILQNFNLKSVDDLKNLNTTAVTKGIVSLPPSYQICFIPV
Sequence of CYP2C9 (P11712 whole entry): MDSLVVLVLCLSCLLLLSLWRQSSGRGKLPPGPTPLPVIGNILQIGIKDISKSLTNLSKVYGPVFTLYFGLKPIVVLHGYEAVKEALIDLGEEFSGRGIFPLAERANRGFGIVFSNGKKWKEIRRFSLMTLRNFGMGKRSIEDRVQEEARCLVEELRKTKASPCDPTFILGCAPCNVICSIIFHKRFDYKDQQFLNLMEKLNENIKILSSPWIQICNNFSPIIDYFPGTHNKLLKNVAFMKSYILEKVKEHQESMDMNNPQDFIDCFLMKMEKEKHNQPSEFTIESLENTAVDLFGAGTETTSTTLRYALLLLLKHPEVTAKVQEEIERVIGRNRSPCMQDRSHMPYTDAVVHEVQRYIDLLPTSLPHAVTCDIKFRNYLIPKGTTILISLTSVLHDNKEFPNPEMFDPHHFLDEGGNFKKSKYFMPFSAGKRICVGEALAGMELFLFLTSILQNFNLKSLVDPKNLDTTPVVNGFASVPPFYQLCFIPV
Sequence of CYP2D6 (P10635 whole entry): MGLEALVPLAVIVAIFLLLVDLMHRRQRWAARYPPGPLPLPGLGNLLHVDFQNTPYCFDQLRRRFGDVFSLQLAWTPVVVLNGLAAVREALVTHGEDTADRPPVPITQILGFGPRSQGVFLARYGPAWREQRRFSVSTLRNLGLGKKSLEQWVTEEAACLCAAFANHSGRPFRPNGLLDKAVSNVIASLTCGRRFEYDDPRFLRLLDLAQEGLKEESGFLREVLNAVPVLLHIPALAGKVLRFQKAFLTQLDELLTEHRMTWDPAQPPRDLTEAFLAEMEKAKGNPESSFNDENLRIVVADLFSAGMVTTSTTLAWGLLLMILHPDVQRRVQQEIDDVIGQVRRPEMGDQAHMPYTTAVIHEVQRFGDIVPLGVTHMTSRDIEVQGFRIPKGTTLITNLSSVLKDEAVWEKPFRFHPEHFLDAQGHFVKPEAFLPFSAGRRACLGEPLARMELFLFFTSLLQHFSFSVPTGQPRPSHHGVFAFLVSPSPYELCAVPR
Sequence of CYP2C19 (P33261 whole entry): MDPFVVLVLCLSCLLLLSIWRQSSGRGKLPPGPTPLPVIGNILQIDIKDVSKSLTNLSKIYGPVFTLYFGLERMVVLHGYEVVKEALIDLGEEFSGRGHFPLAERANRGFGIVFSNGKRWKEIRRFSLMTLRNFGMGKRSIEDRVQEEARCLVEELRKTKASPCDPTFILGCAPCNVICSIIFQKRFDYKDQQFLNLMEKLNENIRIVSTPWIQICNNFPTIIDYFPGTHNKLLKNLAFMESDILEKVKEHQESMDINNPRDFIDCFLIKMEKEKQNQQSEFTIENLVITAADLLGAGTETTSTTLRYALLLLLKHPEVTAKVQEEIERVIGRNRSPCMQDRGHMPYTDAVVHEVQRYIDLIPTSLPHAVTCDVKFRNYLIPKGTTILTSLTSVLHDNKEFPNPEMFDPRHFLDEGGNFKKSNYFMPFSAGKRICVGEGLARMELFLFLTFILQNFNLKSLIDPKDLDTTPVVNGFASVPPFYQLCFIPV
Sequence of CYP2B6 (P20813 whole entry): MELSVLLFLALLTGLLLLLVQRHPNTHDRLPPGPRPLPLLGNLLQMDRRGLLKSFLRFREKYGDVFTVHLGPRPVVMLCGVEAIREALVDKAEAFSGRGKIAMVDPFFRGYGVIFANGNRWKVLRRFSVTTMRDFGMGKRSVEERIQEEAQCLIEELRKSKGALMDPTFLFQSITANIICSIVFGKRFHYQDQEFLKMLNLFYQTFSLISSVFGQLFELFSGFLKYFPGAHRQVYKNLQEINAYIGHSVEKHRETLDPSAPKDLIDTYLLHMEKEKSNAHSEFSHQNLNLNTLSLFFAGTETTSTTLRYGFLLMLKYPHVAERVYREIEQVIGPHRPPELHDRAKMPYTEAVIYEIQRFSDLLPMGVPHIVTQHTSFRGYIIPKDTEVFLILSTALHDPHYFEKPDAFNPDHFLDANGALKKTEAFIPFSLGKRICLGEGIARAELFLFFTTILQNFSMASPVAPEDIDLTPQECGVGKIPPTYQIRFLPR

In the case of `Cc1ccc2nc(C)c(C(=O)NCc3cccc(S(F)(F)(F)(F)F)c3)n2c1` [Compound 16, 2,6-Dimethyl-N-(3-(pentafluoro-λ^6-sulfanyl)benzyl)imidazo[1,2-a]pyridine-3-carboxamide], the MIC [1] is reported as < 0.1 µM, the IC50 [2, 17] is reported as > 25 µM and the IC50 [2, 18] is reported as > 25 µM.

In the case of `Cc1ccn2c(C(=O)NCc3cccc(S(F)(F)(F)(F)F)c3)c(C)nc2c1` [Compound 14, 2,7-Dimethyl-N-(3-(pentafluoro-λ^6-sulfanyl)benzyl)imidazo[1,2-a]pyridine-3-carboxamide], the MIC [3] is reported as 200 µM (≈ 81.1 µg/mL), the IC50 [2, 17] is reported as > 25 µM and the IC50 [2, 18] is reported as > 25 µM.

With `CCc1nc2ccc(Cl)cn2c1C(=O)NCc1ccc(S(F)(F)(F)(F)F)cc1` [Compound 17, 6-Chloro-2-ethyl-N-(4-(pentafluoro-λ^6-sulfanyl)benzyl)imidazo[1,2-a]pyridine-3-carboxamide] the MIC [4] was < 0.01 µM, the therapeutic window [5] was > 100 and the IC50 [2, 17] was > 25 µM. The IC50 [2, 18] was > 25 µM.

In the case of `CC(=O)NC[C@H]1CN(c2ccc(N3CCOCC3)c(F)c2)C(=O)O1` [LIN, linezolid, reference compound], the IC50 [2, 17] is reported as > 25 µM and the IC50 [2, 18] is reported as > 25 µM.

Work on `NNC(=O)c1ccncc1` [INH, Isoniazid, reference compound] yielded an MIC [4] of 0.37 µM (≈ 0.0507 µg/mL).

For `Cc1cn2c(C(=O)NCc3cccc(S(F)(F)(F)(F)F)c3)c(C)nc2s1` [Compound 20, 2,6-Dimethyl-N-(3-(pentafluoro-λ^6-sulfanyl)benzyl)imidazo[2,1-b]thiazole-5-carboxamide], the IC50 [2, 17] was 14 µM, the IC50 [2, 18] was > 25 µM and the IC50 ([2]; read-out: IC50 HepG2 Gal, galactose medium) was 14.1 µM.

For `Cc1ccc2nc(C)c(C(=O)NCc3ccc(S(F)(F)(F)(F)F)cc3)n2c1` [Compound 15, 2,6-Dimethyl-N-(4-(pentafluoro-λ^6-sulfanyl)benzyl)imidazo[1,2-a]pyridine-3-carboxamide], the MIC [4] was < 0.01 µM, the MIC [1] was < 0.1 µM and the IC50 [2, 17] was > 25 µM. The IC50 [2, 18] was > 25 µM.

In the case of `Cc1cn2c(C(=O)NCc3ccc(S(F)(F)(F)(F)F)cc3)c(C)nc2s1` [Compound 19, 2,6-Dimethyl-N-(4-(pentafluoro-λ^6-sulfanyl)benzyl)imidazo[2,1-b]thiazole-5-carboxamide], the IC50 [6] is reported as > 20 µM, the IC50 [7] is reported as 14 µM and the IC50 [8] is reported as > 20 µM. For the same compound, the IC50 [9] was 13.5 µM, the microsomal CLint [10] was 175 µL/min/mg and the half-life [10] was 13.5 min. The MIC [3] was 200 µM (≈ 82.3 µg/mL), the IC50 [11] was 13.4 µM and the “Caco-2 Efflux Ratio (average)” value [12] was 0.988. The MIC [1] was < 0.1 µM, the IC50 [13] was > 20 µM and the “Human liver S9 Microsomes T ½” value was 13.3 min. The IC50 [2, 17] was > 25 µM, the IC50 [2, 18] was > 25 µM and the Papp A→B at 1 h [14] was 63.5 nm/s. The Papp A→B at 2 h [14] was 121 nm/s, the Papp B→A at 1 h [14] was 83.5 nm/s and the Papp B→A at 2 h [14] was 81 nm/s. The efflux ratio [14] was < 1 and the fraction unbound [15] was 0.003.

In the case of `CCc1nc2ccc(Cl)cn2c1C(=O)NCc1cccc(S(F)(F)(F)(F)F)c1` [Compound 18, 6-Chloro-2-ethyl-N-(3-(pentafluoro-λ^6-sulfanyl)benzyl)imidazo[1,2-a]pyridine-3-carboxamide], the IC50 [6] is reported as 8.4 µM and > 20 µM, the IC50 [7] is reported as 10.4 µM and the IC50 [8] is reported as 14.4 µM. It also gave an IC50 [9] of 10.6 µM, a microsomal CLint [10] of 89.7 µL/min/mg and a half-life [10] of 25.8 min. The IC50 [11] was 6.5 µM, the “Caco-2 Efflux Ratio (average)” value [12] was 3.16 and the IC50 [13] was 8.4 µM. For the same compound, the IC50 [2, 17] was > 25 µM, the IC50 [2, 18] was > 25 µM and the Papp A→B at 1 h [14] was 10.9 nm/s. It also gave a Papp A→B at 2 h [14] of 19.9 nm/s, a Papp B→A at 1 h [14] of 36.5 nm/s and a Papp B→A at 2 h [14] of 56.1 nm/s. The efflux ratio [14] was 3.2 and the fraction unbound [15] was 0.001.

In the case of `Cc1ccn2c(C(=O)NCc3ccc(S(F)(F)(F)(F)F)cc3)c(C)nc2c1` [Compound 13, 2,7-Dimethyl-N-(4-(pentafluoro-λ^6-sulfanyl)benzyl)imidazo[1,2-a]pyridine-3-carboxamide], the MIC [4] is reported as < 0.01 µM, the MIC [1] is reported as < 0.1 µM and the IC50 [2, 17] is reported as > 25 µM. For the same compound, the IC50 [2, 18] was > 25 µM.

With `CC/C(=C(/CC)c1ccc(O)cc1)c1ccc(O)cc1` [diethylstilbestrol] the Aq. sol [16] was 125 µM.

Reference: publication PMC5603227 (ChemMedChem, 2017)
